Measured values: patent publication US6967207B2, “Preventive or therapeutic agents for gastric or esophageal regurgitation” (Mitsubishi Pharma Corporation, priority 2000, dated 2005)

Experiments:
fundic pouch dog [1] = assay: Suppressing action on gastric acid secretion (tetragastrin stimulation) in fundic pouch dog; type: in vivo; details: for Amount of gastric juice secretion: tetragastrin stimulation 2 μg/kg/hr, control 40.1 ± 3.9, mean ± standard error for 6 samples
Protocol: (§1) An effect on gastric acid secretion by stimulation under awakening was studied by using (fundic pouch dog). For preparation of the fundic pouch dog, a mongrel dog after starvation overnight was subjected to sterile ventrotomy under anesthesia using sodium pentobarbital (30 mg/kg, i.v.), and a fistula was attached to a part of the corpus ventriculi. After recovery period for two weeks, the dog was fixed to the Pavlov's stand, and gastric juice was collected every 15 minutes for 4 hours under histamine stimulation (0.2 mg/kg/hr). A volume of each collected gastric juice was recorded, and the juice was titrated with 0.01N NaOH using pH automatic measuring apparatus (Radiometer Copenhagen). The test compound, encapsulated in a gelatin capsule, was orally administered one hour before histamine administration.
Experiment was conducted in a similar manner as Example 1 except that the stimulating agent was replaced with tetragastrin(2 μg/kg/hr).

fundic pouch dog [2] = assay: Suppressing action on gastric acid secretion (histamine stimulation) in fundic pouch dog; type: in vivo; details: for Amount of gastric juice secretion: histamine stimulation 0.2 mg/kg/hr, control 116.1 ± 12.3, mean ± standard error for 6 samples
Protocol: as §1

Question: Which results are given for `O=C(N[C@H]1CN2CCC1CC2)c1cnc2ccsc2c1O` [Test compound, R-(−)-N-(1-azabicyclo[2.2.2]oct-3-yl)-7-hydroxythieno[3,2-b]-pyridine-6-carboxamide]?
Answer: Amount of gastric juice secretion (fundic pouch dog [1]; 10 μg/kg oral): 26.7 ± 7.8 mEq/4 hr; Amount of gastric juice secretion (fundic pouch dog [1]; 30 μg/kg oral): 12.9 ± 5.3 mEq/4 hr; secretion of gastric juice by tetragastrin stimulation (result in words) (fundic pouch dog [1]; tetragastrin stimulation, fundic pouch dog): suppressed; Amount of gastric juice secretion (fundic pouch dog [2]; 3 μg/kg oral (gelatin capsule) one hour before histamine): 76.8 ± 7.4 mEq/4 hr; Amount of gastric juice secretion (fundic pouch dog [2]; 10 μg/kg oral (gelatin capsule) one hour before histamine): 61.9 ± 5.5 mEq/4 hr; secretion of gastric juice by histamine stimulation (result in words) (fundic pouch dog [2]; histamine stimulation, fundic pouch dog): suppressed
